Laboratory results as given in patent publication US6770649B2, “1-[1-(hetero)aryl-1-perhydroxyalkylmethyl]-piperazine compounds, process for their preparation and pharmaceutical compositions containing them” (Solvay Pharmaceuticals GmbH, priority 2001, dated 2004).
Like-named read-outs stand apart in the source and are kept apart here.

Key:
[1] = molecular target: T1, human NK-2 receptor (Homo sapiens, UniProt P21452); assay: Binding power of the test substances to NK-2 receptors in vitro ([3H]-SR 48968 displacement, CHO cell membranes); details: displacement of [3H]-SR 48968, 90 min incubation, average of at least three measurements, 10^-6 to 10^-10 mol/l, read-out: pKi, affinity to human NK-2 receptors (converted)
T1 construct: expressed in transfected cells; host or cells: CHO cells (membrane preparation)
T1 sequence (P21452 1-398): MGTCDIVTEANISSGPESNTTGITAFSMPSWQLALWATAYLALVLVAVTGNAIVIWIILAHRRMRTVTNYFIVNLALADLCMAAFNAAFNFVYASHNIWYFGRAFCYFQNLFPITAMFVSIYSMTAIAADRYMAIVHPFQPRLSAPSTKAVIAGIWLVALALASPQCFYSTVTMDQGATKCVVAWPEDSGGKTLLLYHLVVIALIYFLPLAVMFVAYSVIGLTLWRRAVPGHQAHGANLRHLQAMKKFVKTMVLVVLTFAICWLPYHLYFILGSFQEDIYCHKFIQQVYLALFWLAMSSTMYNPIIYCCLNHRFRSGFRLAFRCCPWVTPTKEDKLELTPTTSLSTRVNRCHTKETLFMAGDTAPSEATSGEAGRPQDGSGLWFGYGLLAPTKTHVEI
Experimental: 1. Determination of the Binding Power of the Test Substances to NK-2 Receptors in vitro
The affinity of the test substances to human NK-2 receptors was measured in vitro. The ability of the test substances to displace the selective NK-2 receptor antagonist SR 48968 (=saredutant) used as reference ligand from its corresponding bond was determined.
The receptor binding studies were carried out with radioactively marked [^3H]-SR 48968 (from Amersham) as ligand. For the binding test, different samples of a membrane preparation of CHO cells (=[…]), which express the human NK-2 receptor (for preparation, see N. P. Gerard et al., Journal of Biological Chemistry 265/33 (1990) 20455-20462), were incubated for 90 minutes (=min.) with a solution of the marked ligand, with the incubation mixtures containing no test substance or additions of different concentrations of test substance. Then in each case the membrane-bound ligands in the samples were separated from free ligands by filtration. The fraction remaining in the filter was washed several times with buffer solution, before its radioactivity was measured using a liquid scintillation counter. That concentration which effects half-maximum displacement of the bound reference ligand was determined as IC50 of the respective test substance. The inhibition constant (Ki value) of the test substance was calculated from the respective IC50 value, and was stated as the negative logarithmised value thereof (pKi).
For the compounds of Examples 1 to 39, the affinity to human NK-2 receptors was determined in each case by at least three measurements of the test substances in concentration series of 10^−6 to 10^−10 mol/l. If several measurements were performed, the average thereof was listed each time.

[2] = molecular target: T2, NK-2 receptors (Cavia porcellus, UniProt Q64077); assay: NK-2-receptor-antagonistic effectiveness in vivo in anaesthetised guinea pigs (NKA test stimulus); design: species or system guinea pig; details: for ED50: guinea pig
T2 construct: the NK-2 receptors present in the gall-bladder preparations; from tissue; host or cells: Pirbright-White guinea pig: isolated gall-bladder (A2); anaesthetised whole animal (A3)
T2 sequence (Q64077 1-402): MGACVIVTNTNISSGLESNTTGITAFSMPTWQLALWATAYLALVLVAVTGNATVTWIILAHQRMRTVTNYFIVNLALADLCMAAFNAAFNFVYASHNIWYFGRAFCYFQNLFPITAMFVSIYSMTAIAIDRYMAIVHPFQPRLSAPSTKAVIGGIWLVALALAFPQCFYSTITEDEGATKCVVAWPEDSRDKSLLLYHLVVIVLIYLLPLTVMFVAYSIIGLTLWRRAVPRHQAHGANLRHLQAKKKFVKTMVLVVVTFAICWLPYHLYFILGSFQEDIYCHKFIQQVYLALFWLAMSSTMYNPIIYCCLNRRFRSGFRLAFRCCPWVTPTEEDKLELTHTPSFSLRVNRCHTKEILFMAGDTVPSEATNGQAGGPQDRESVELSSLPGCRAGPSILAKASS
Source text: 3. Determination of the NK-2-receptor-antagonistic Effectiveness of the Test Substances in vivo
The NK-2- and NK-1-antagonistic activities of the test substances were investigated in anaesthetised guinea pigs in each case after intravenous (=i.v.) and oral (=p.o.) administration in vivio. With the present test model it is possible to detect both NK-2-antagonistic effects in three different organ systems (respiratory tracts, colon and circulation) and NK-1-antagonistic effects (rapid drop in blood pressure) in an animal simultaneously.
Pirbright-White guinea pigs of a body weight of 500-700 g were anaesthetised with ketamine/xylazine (67/13 mg/kg subcutaneously, initial dose, further doses administered as required). The animals were provided with an intravenous catheter in order to administer the substance and an intra-arterial catheter to measure the blood pressure. The animals were artificially ventilated via a tracheal cannula and the respiratory pressure was recorded by means of a pressure transducer. A balloon was introduced into the distal colon of the animals for manometric recording of colon motility by means of a pressure transducer. Blood pressure, heart rate, respiratory pressure and colonic pressure were measured continuously for each animal and plotted on a recorder and by means of a digital data-processing system. Neurokinin A (=NKA; 200 pmol/animal) was administered i.v. as a bolus as a test stimulus to stimulate the NK-1- and the NK-2 receptors. An addition of NKA of this type results in a great increase in respiratory pressure (bronchoconstriction) and colonic pressure, and in a biphasic drop in blood pressure. The first phase of hypotension (=phase of maximum hypotension within the first minute after administration of NKA) is mediated via NK-1 receptors, since they can be blocked completely by specific NK-1 receptor antagonists. The second phase of delayed hypotension (=phase of maximum hypotension after 2-5 min.) on the other hand is mediated via NK-2 receptors, since they can be blocked by specific NK-2 receptor antagonists. The doses of the test substances are given as ED50 values which each result in a response to the NKA test stimulus which is reduced to 50% of the initial value, as characteristic variables for the individual measurement parameters bronchoconstriction, colonic pressure and change in blood pressure mediated by NK-1 or NK-2.
The antagonistic effects of the test substances were first investigated in cumulative form, the time of the NKA test stimulus being 1 min. after the administration of the respective doses of the test substances had ended. These ED50 values obtained from cumulative dose effect curves are plotted in Table 2 below. In order additionally to detect the variation over time of the antagonistic effects of the test substances, the action of the NKA test stimulus was determined at different times (1, 30, 60, 90, 120, 150 and 180 min.) after administration of the test substances.

SMILES: CN(CC(CCN1CCN(C(c2ccccc2)[C@H](O)[C@@H](O)[C@H](O)CO)CC1)c1ccc(Cl)c(Cl)c1)C(=O)c1ccccc1 (mixture of isomers) [Example 25]
- Ki [1]: ≤ 10 nM

SMILES: CN(CC(CCN1CCN(C(c2ccsc2)[C@H](O)CO)CC1)c1ccc(Cl)c(Cl)c1)C(=O)c1ccccc1 (mixture of isomers) [Example 8]
- Ki [1]: ≤ 10 nM

SMILES: CN(CC(CCN1CCN(C(c2ccsc2)[C@@H](O)[C@@H](O)[C@H](O)[C@H](O)CO)CC1)c1ccc(Cl)c(Cl)c1)C(=O)c1ccccc1 (mixture of isomers) [Example 21]
- Ki [1]: ≤ 10 nM

SMILES: CN(C[C@@H](CCN1CCN(C(c2ccco2)[C@H](O)CO)CC1)c1ccc(Cl)c(Cl)c1)C(=O)c1ccccc1 (stereo partly drawn) [Example 2, N-((2S)-2-(3,4-dichlorophenyl)-4-{4[(2S)-2,3-dihydroxy-1-(2-furyl)propyl]-1-piperazinyl}-butyl)-N-methylbenzamide]
- Ki [1]: ≤ 1 nM

SMILES: CN(C[C@@H](CCN1CCN(C(c2ccoc2)[C@H](O)CO)CC1)c1ccc(Cl)c(Cl)c1)C(=O)c1ccccc1 (stereo partly drawn) [Example 6, N-((2S)-2-(3,4-dichlorophenyl)-4-{4[(2S)-2,3-dihydroxy-1-(3-furyl)propyl]-1-piperazinyl}-butyl)-N-methylbenzamide]
- Ki [1]: ≤ 1 nM

SMILES: CN(CC(CCN1CCN(C(c2cccs2)[C@@H](O)[C@H](O)[C@H](O)CO)CC1)c1ccc(Cl)c(Cl)c1)C(=O)c1ccccc1 (mixture of isomers) [Example 19]
- Ki [1]: ≤ 10 nM

SMILES: CN(CC(CCN1CCN(C(c2ccsc2)[C@@H](O)[C@H](O)[C@@H](O)[C@@H](O)CO)CC1)c1ccc(Cl)c(Cl)c1)C(=O)c1ccccc1 (mixture of isomers) [Example 20]
- Ki [1]: ≤ 10 nM

SMILES: CN(C[C@@H](CCN1CCN(C(c2ccco2)[C@H]2COC(=S)O2)CC1)c1ccc(Cl)c(Cl)c1)C(=O)c1ccccc1 (stereo partly drawn) [Example 39]
- Ki [1]: ≤ 1 nM

SMILES: CN(CC(CCN1CCN(C(c2ccsc2)[C@H](O)[C@@H](O)CO)CC1)c1ccc(Cl)c(Cl)c1)C(=O)c1ccccc1 (mixture of isomers) [Example 16]
- Ki [1]: ≤ 10 nM

SMILES: CN(CC(CCN1CCN(C(c2ccsc2)[C@H](O)[C@@H](O)[C@H](O)[C@H](O)CO)CC1)c1ccc(Cl)c(Cl)c1)C(=O)c1ccccc1 (mixture of isomers) [Example 23]
- Ki [1]: ≤ 10 nM

SMILES: CN(CC(CCN1CCN(C(CO)c2ccsc2)CC1)c1ccc(Cl)c(Cl)c1)C(=O)c1ccccc1 (stereo not drawn) [Example 26]
- Ki [1]: ≤ 10 nM

SMILES: CN(CC(CCN1CCN(C(c2cccs2)[C@H](O)[C@@H](O)[C@H](O)CO)CC1)c1ccc(Cl)c(Cl)c1)C(=O)c1ccccc1 (mixture of isomers) [Example 24]
- Ki [1]: ≤ 10 nM

SMILES: CN(C[C@@H](CCN1CCN(C(c2ccsc2)[C@H](O)CO)CC1)c1ccc(Cl)c(Cl)c1)C(=O)c1ccccc1 (stereo partly drawn) [Example 5]
- Ki [1]: ≤ 1 nM
- NK-2-receptor-antagonistic activity of colon motility, late drop in blood pressure and respiratory resistance (in words) ([2]; cumulative administration i.v., antagonism detected 1 min. after administration had ended): marked NK-2-receptor-antagonistic activity
- ED50 ([2]; iv, cumulative dosing, NKA stimulus 1 min. after administration, NK-2-mediated late drop in blood pressure, read-out: ED50 Blood pressure, i.v. after 1 min. (cumulative)): 0.13 µmol/kg
- ED50 ([2]; iv, cumulative dosing, NKA stimulus 1 min. after administration, respiratory resistance (bronchoconstriction), read-out: ED50 Respiratory resistance, i.v. after 1 min. (cumulative)): 0.106 µmol/kg
- ED50 ([2]; iv, cumulative dosing, NKA stimulus (200 pmol/animal i.v.) 1 min. after administration, colonic pressure, read-out: ED50 Colonic pressure, i.v. after 1 min. (cumulative)): 0.041 µmol/kg
- ED50 ([2]; iv, from AUC of antagonistic effect over 120 min after administration, colonic pressure, read-out: ED50 Colonic pressure, i.v. AUC over 120 min): 0.014 µmol/kg
- ED50 ([2]; iv, from AUC over 120 min after administration, NK-2-mediated drop in blood pressure, read-out: ED50 Blood pressure, i.v. AUC over 120 min): 0.004 µmol/kg
- ED50 ([2]; iv, from AUC over 120 min after administration, respiratory resistance, read-out: ED50 Respiratory resistance, i.v. AUC over 120 min): 0.008 µmol/kg
- ED50 ([2]; po, from AUC over 180 min after administration, NK-2-mediated drop in blood pressure, read-out: ED50 Blood pressure, p.o. AUC over 180 min.): 7.6 µmol/kg
- ED50 ([2]; po, from AUC over 180 min after administration, colonic pressure, read-out: ED50 Colonic pressure, p.o. AUC over 180 min.): 3.4 µmol/kg
- ED50 ([2]; po, from AUC over 180 min after administration, respiratory resistance, read-out: ED50 Respiratory resistance, p.o. AUC over 180 min.): 2.7 µmol/kg

SMILES: CN(CC(CCN1CCN(C(c2cccs2)C(O)CO)CC1)c1ccc(Cl)c(Cl)c1)C(=O)c1ccccc1 (stereo not drawn) [Example 22]
- Ki [1]: ≤ 10 nM

SMILES: CN(C[C@@H](CCN1CCN(C(c2ccsc2)[C@@H](O)[C@H](O)[C@@H](O)CO)CC1)c1ccc(Cl)c(Cl)c1)C(=O)c1ccccc1 (stereo partly drawn) [Example 12, N-((2S)-2-(3,4-dichlorophenyl)-4-{4[(2R,3S,4S)-2,3,4,5-tetrahydroxy-1-(3-thienyl)pentyl]-1-piperazinyl}butyl)-N-methylbenzamide]
- Ki [1]: ≤ 10 nM

SMILES: CN(CC(CCN1CCN(C(c2ccsc2)[C@@H](O)[C@@H](O)[C@@H](O)CO)CC1)c1ccc(Cl)c(Cl)c1)C(=O)c1ccccc1 (mixture of isomers) [Example 27]
- Ki [1]: ≤ 10 nM

SMILES: CN(C[C@@H](CCN1CCN(C(c2ccco2)[C@H]2COC(=O)O2)CC1)c1ccc(Cl)c(Cl)c1)C(=O)c1ccccc1 (stereo partly drawn) [Example 4, N-[((2S)-2-(3,4)-dichlorophenyl)-4-(4-{2-furyl[(4S)-2-oxo-1,3-dioxolan-4-yl]methyl}-1-piperazinyl)butyl]-N-methylbenzamide]
- Ki [1]: ≤ 1 nM

SMILES: CN(C[C@@H](CCN1CCN(C(c2ccco2)[C@H](O)[C@@H](O)[C@H](O)CO)CC1)c1ccc(Cl)c(Cl)c1)C(=O)c1ccccc1 (stereo partly drawn) [Example 10, N-((2S)-2-(3,4-dichlorophenyl)-4-{4[(2S,3R,4R)-2,3,4,5-tetrahydroxy-1-(2-furyl)pentyl]-1-piperazinyl}-butyl)-N-methylbenzamide]
- Ki [1]: ≤ 10 nM

SMILES: CN(CC(CCN1CCN(C(c2ccsc2)[C@@H](O)CO)CC1)c1ccc(Cl)c(Cl)c1)C(=O)c1ccccc1 (mixture of isomers) [Example 11]
- Ki [1]: ≤ 10 nM

SMILES: CN(CC(CCN1CCN(C(c2ccsc2)C(O)CO)CC1)c1ccc(Cl)c(Cl)c1)C(=O)c1ccccc1 (stereo not drawn) [Example 18]
- Ki [1]: ≤ 10 nM
